Among the test systems are SF-268; HOP-62; HCC 2998; UACC-257; ACHN; MDA-MB-231; UACC-62; OVCAR-3; PC-3; NCI-H460; RXF 393; U-251; SK-MEL-28; IGROV-1; HCT-116; SW-620; SNB-19; EKVX; SK-MEL-2.
What all share (assay): DTP human tumour cell line panel, 48 h

Molecules are shown by their SMILES.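 Assay format: 96-well plates, 48-hour exposure. At the GI50, growth is halved.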 The source made the active and inactive calls. Rule as the data show it: active = GI50 up to about 1.1 µM and inactive = higher. Some results are limits rather than exact numbers.

A word on the GI50: it is the concentration giving 50% growth inhibition. For `CN(C)Cc1cc(/N=N/c2cccc(Cl)c2)ccc1O`, the GI50 in the assay with SF-268 was 11.6 µM (inactive); with HOP-62, 10.2 µM (inactive); with HCC 2998, 14.3 µM (inactive); in the assay with UACC-257 it was 14.5 µM (inactive); in the assay with ACHN, 3.29 µM (inactive); in the assay on MDA-MB-231, 9.1 µM (inactive). Besides, the GI50 was 3.61 µM (inactive) in the assay on UACC-62; 13.6 µM (inactive) in the assay with OVCAR-3; 16.6 µM (inactive) with PC-3; 12.8 µM (inactive) in the assay with NCI-H460; 1.99 µM (inactive) in the assay on RXF 393; 16.9 µM (inactive) in the assay on U-251. Besides, the GI50 in the assay with SK-MEL-28 is 13.6 µM (inactive); in the assay with IGROV-1, 10.9 µM (inactive); with HCT-116, 15.2 µM (inactive); in the assay on SW-620, 10.7 µM (inactive); with SNB-19, 18.8 µM (inactive).

Take `CC(NC(=O)OC(C)(C)C)C(=O)NC1CCCC1` (stereo not drawn): the GI50 in the assay on SF-268, in the assay on HCC 2998, with UACC-257, in the assay with ACHN, with OVCAR-3 and in the assay on EKVX was > 100 µM (inactive) throughout. For the same compound, the GI50 with PC-3, in the assay on NCI-H460, in the assay on RXF 393, in the assay on SK-MEL-28, in the assay with IGROV-1 and in the assay on HCT-116 was > 100 µM (inactive) each time. Also, the GI50 with SW-620 and in the assay on SNB-19 was > 100 µM (inactive) throughout.

As for `CN(C)c1ccc(/N=N/c2ccncc2)cc1`, the GI50 with SF-268 is 85.7 µM (inactive); in the assay on HOP-62, > 100 µM (inactive); with HCC 2998, 22.6 µM (inactive); with UACC-257 it was > 100 µM (inactive); in the assay with ACHN it was > 100 µM (inactive); in the assay on MDA-MB-231, > 100 µM (inactive). For the same compound, the GI50 with UACC-62 is 87.5 µM (inactive); in the assay with OVCAR-3 it was > 100 µM (inactive); in the assay with EKVX, 18.5 µM (inactive); in the assay with PC-3, > 100 µM (inactive); with NCI-H460, > 100 µM (inactive); in the assay with RXF 393, > 100 µM (inactive). For the same compound, the GI50 in the assay on U-251, with SK-MEL-28, in the assay with IGROV-1, in the assay with HCT-116, in the assay on SW-620 and in the assay on SNB-19 was > 100 µM (inactive) in each case.

For `N#C/C(N)=C(C#N)/N=C/NCCO`, the GI50 in the assay with SF-268, with HOP-62, in the assay on HCC 2998, in the assay with UACC-257, in the assay with ACHN and with MDA-MB-231 was > 100 µM (inactive) throughout. Further, the GI50 in the assay with UACC-62, in the assay with OVCAR-3, in the assay with EKVX, in the assay with SK-MEL-2, in the assay on PC-3 and with NCI-H460 was > 100 µM (inactive) each time. Moreover, the GI50 in the assay on U-251, in the assay on SK-MEL-28, in the assay on IGROV-1, with HCT-116, with SW-620 and in the assay on SNB-19 was > 100 µM (inactive) in each case.

On to `N#CC(C#N)=Cc1ccc(C=C2SC3=C(SCCS3)S2)s1`, for which the GI50 in the assay on SF-268 was 40.4 µM (inactive); with HOP-62, 80.9 µM (inactive); in the assay with HCC 2998 it was 15.8 µM (inactive); in the assay on UACC-257 it was 9.38 µM (inactive); in the assay on ACHN, > 100 µM (inactive); in the assay with MDA-MB-231, 33.7 µM (inactive). The GI50 in the assay on UACC-62 is 2.89 µM (inactive); with OVCAR-3, 2.5 µM (inactive); in the assay with EKVX it was > 100 µM (inactive); in the assay on SK-MEL-2, > 100 µM (inactive); in the assay on PC-3, 6.04 µM (inactive); with NCI-H460, 7.59 µM (inactive). The GI50 was 12.4 µM (inactive) in the assay with U-251; > 100 µM (inactive) in the assay on SK-MEL-28; 4.52 µM (inactive) in the assay on IGROV-1; 3.24 µM (inactive) with HCT-116; 4.38 µM (inactive) in the assay with SW-620; 44.1 µM (inactive) in the assay with SNB-19.

`COc1cccc(/C=C2\S/C(=N/Nc3nc(-c4ccc([N+](=O)[O-])cc4)cs3)NC2=O)c1O`: the GI50 in the assay on SF-268 was 5 µM (inactive); in the assay on HOP-62, 15.3 µM (inactive); with HCC 2998, 17.5 µM (inactive); in the assay on UACC-257, 27.5 µM (inactive); with ACHN, 17.3 µM (inactive); with MDA-MB-231, 18.4 µM (inactive). For the same compound, the GI50 with OVCAR-3 is 15 µM (inactive); with EKVX, 17.4 µM (inactive); in the assay on PC-3, 16.1 µM (inactive); in the assay with NCI-H460, 12.6 µM (inactive); with U-251, 1.8 µM (inactive); in the assay with SK-MEL-28 it was 20.8 µM (inactive). Moreover, the GI50 in the assay on IGROV-1 was 11.3 µM (inactive); in the assay on HCT-116, 13.1 µM (inactive); with SW-620 it was 19.3 µM (inactive); in the assay on SNB-19 it was 5.19 µM (inactive).

Turning to `CSC1NNC2(C(=O)N1)c1ccccc1-c1ccccc12` (stereo not drawn), the GI50 with SF-268, with HOP-62, in the assay on HCC 2998, in the assay with UACC-257, in the assay on ACHN and in the assay on MDA-MB-231 was > 10 µM (inactive) in each case. Besides, the GI50 with UACC-62 was > 10 µM (inactive); with EKVX, 8.32 µM (inactive); in the assay on PC-3 it was > 10 µM (inactive); with NCI-H460 it was > 10 µM (inactive); in the assay with RXF 393, > 10 µM (inactive); in the assay with SK-MEL-28, > 10 µM (inactive). The GI50 in the assay on IGROV-1, with HCT-116, in the assay with SW-620 and in the assay with SNB-19 was > 10 µM (inactive) each time.

Regarding `COC(=O)c1ccc(NC(=O)c2cc3c(cc2Br)OCO3)o1`, the GI50 with SF-268 is 0.471 µM (active); in the assay on HOP-62, > 100 µM (inactive); with HCC 2998, > 100 µM (inactive); with UACC-257, > 100 µM (inactive); in the assay on ACHN, > 100 µM (inactive); in the assay with MDA-MB-231 it was > 100 µM (inactive). Moreover, the GI50 with UACC-62, with OVCAR-3, in the assay on EKVX, in the assay on SK-MEL-2, in the assay with PC-3 and in the assay with U-251 was > 100 µM (inactive) each time. Moreover, the GI50 with SK-MEL-28, in the assay on IGROV-1, in the assay on HCT-116, in the assay on SW-620 and with SNB-19 was > 100 µM (inactive) each time.

As to `C/C(=N\NC(=O)Nc1ccccc1Cl)c1ccc(O)cc1`, the GI50 in the assay on SF-268, with HCC 2998, with UACC-257, with ACHN, with MDA-MB-231 and with UACC-62 was > 100 µM (inactive) throughout. The GI50 was > 100 µM (inactive) with OVCAR-3; > 100 µM (inactive) in the assay with EKVX; > 100 µM (inactive) with SK-MEL-2; > 100 µM (inactive) in the assay on PC-3; 20.9 µM (inactive) with NCI-H460; 77.6 µM (inactive) with U-251. Further, the GI50 in the assay with SK-MEL-28 was > 100 µM (inactive); with IGROV-1, > 100 µM (inactive); with HCT-116, 48.6 µM (inactive); in the assay on SW-620, > 100 µM (inactive); in the assay on SNB-19 it was > 100 µM (inactive).

For `CCOC(=O)N1C(=S)C(C(=O)OC)(C(=O)OC)N=C1C`, the GI50 in the assay with HOP-62, with HCC 2998, in the assay on UACC-257, in the assay with ACHN, in the assay with UACC-62 and in the assay on OVCAR-3 was > 100 µM (inactive) each time. In addition, the GI50 with EKVX, in the assay with SK-MEL-2, in the assay with PC-3, with NCI-H460, in the assay on RXF 393 and with U-251 was > 100 µM (inactive) each time. Further, the GI50 in the assay on SK-MEL-28, in the assay with IGROV-1, in the assay with HCT-116, in the assay on SW-620 and in the assay on SNB-19 was > 100 µM (inactive) in each case.

Regarding `CC(=O)O[C@H]1CSC[C@@H](OC(C)=O)C1[N+](=O)[O-]` (stereo partly drawn), the GI50 with SF-268 was > 100 µM (inactive); with HOP-62, > 100 µM (inactive); with HCC 2998, 33.7 µM (inactive); with UACC-257 it was 20.6 µM (inactive); with ACHN it was 93.5 µM (inactive); with UACC-62 it was 65.8 µM (inactive). Further, the GI50 with OVCAR-3 was 21.5 µM (inactive); with EKVX, > 100 µM (inactive); with SK-MEL-2, 27.3 µM (inactive); with NCI-H460, > 100 µM (inactive); with RXF 393, 20.1 µM (inactive); with U-251, > 100 µM (inactive). The GI50 with SK-MEL-28 is 26.8 µM (inactive); in the assay with IGROV-1, > 100 µM (inactive); in the assay with HCT-116 it was 95.3 µM (inactive); in the assay on SW-620 it was 27 µM (inactive); with SNB-19 it was > 100 µM (inactive).

As to `Oc1cc(-c2ccc3ccccc3c2)nc2ncc(Cl)cc12`, the GI50 in the assay on SF-268 is 4.74 µM (inactive); in the assay with HOP-62, 8.59 µM (inactive); with HCC 2998, 10.2 µM (inactive); in the assay on UACC-257 it was 9.06 µM (inactive); with ACHN it was 4.9 µM (inactive); in the assay with MDA-MB-231, 15.6 µM (inactive). For the same compound, the GI50 is 3.66 µM (inactive) in the assay with UACC-62; 14.5 µM (inactive) in the assay on EKVX; 7.64 µM (inactive) in the assay with SK-MEL-2; 40.9 µM (inactive) in the assay with SK-MEL-28; 8.09 µM (inactive) with IGROV-1; 4.12 µM (inactive) in the assay with SW-620. Moreover, in the assay with SNB-19, the GI50 was 9.31 µM (inactive).

Source of the values: ChEMBL document CHEMBL1201862, “PubChem BioAssay data set” (2004).
